Reference: US20190246646A1 (priority 2016, published 2019)

Columns and labels:
[1] = tested on: M. oryzae BOA102; conditions: for mycelium color / phenotype of the fungal colony: BOA102 exposed to single commercial compound, dual plate; for mycelium growth measured as colony diameter: Student T-test p<0.05
[2] = tested on: M. oryzae mycelium; conditions: compound added to fungal growth media; untreated black; cited from earlier work
[3] = tested on: M. oryzae BOA102; conditions: grown in the presence of Tricyclazole

SMILES | mycelium color / phenotype of the fungal colony [1] | mycelium growth measured as colony diameter [1] | pigmentation of M. oryzae mycelium [2] | color of the mycelium (DHN melanin inhibition phenotype) [3]
CC(=O)OCCC(C)C [1-butanol-3-methyl-acetate] | do not induce appreciable phenotype/color variations | significant reduction | – | –
CC(C)CCO [1-butanol-3-methyl] | shift from black to white | significant reduction | – | –
CC(C)CO [1-propanol-2-methyl] | do not induce appreciable phenotype/color variations | significant reduction | – | –
Cc1ccc(C(=O)NC[C@@H](NC(=O)OCC(F)(F)F)C(C)C)cc1 [Tolprocab] | – | – | white | –
Cc1cccc2sc3nncn3c12 [Tricyclazole] | – | – | orange | orange color
CCO [ethanol] | do not induce appreciable phenotype/color variations | No effect | – | –
